Type in all cases: functional, cell-based
Assay [1] in a line: Inhibition of TNF-alpha-FL-Gluc secretion in doxycyclin-induced human Flp-In-T-REx-293 cells measured by Gaussia luciferase reporter gene method.
A short description of assay [2]: Inhibition of PD1ss-Gluc secretion in doxycyclin-induced human Flp-In-T-REx-293 cells measured by Gaussia luciferase reporter gene method.
The nature of assay [3]: Inhibition of constitutively active PR1ss-Gluc secretion in human Flp-In-T-REx-293 cells measured by Gaussia luciferase reporter gene method.
The nature of assay [4]: Inhibition of PR1ss-Gluc secretion in doxycyclin-induced human Flp-In-T-REx-293 cells measured by Gaussia luciferase reporter gene method.
A short description of assay [5]: Inhibition of constitutively active VCAMss-Gluc secretion in human Flp-In-T-REx-293 cells measured by Gaussia luciferase reporter gene method.

Data on 58 compounds can be found in ChEMBL document CHEMBL5050843, “Amide substituted thiazoles as protein secretion inhibitors” (2019).

Structures are written as SMILES.

Turning to `CC(C)(C)c1csc(NC(=O)Cc2cn(Cc3ccon3)c3ccc(Cl)cc23)n1`, the IC50 in assay [1] is over 25 µM; in assay [2], 10.3 µM.

On to `CC(C)(C)c1csc(NC(=O)Cc2cn(Cc3ccncc3)c3ccc(Cl)cc23)n1`, for which the half-inhibitory concentration (IC50) in assay [1] was 11 µM; in assay [3], over 25 µM; in assay [4], over 25 µM; in assay [2] it was 2.76 µM; in assay [5], 1.41 µM.

On to `CC(c1ccccc1Cl)n1cc(CC(=O)Nc2nc(C(C)(C)C)cs2)c2cc(Cl)ccc21` (stereo unspecified), for which the values for the 50% inhibitory concentration (IC50) in assay [1], in assay [4] and in assay [2] were over 25 µM, over 25 µM and 1.55 µM, respectively.

In the case of `CC(C)(C)c1csc(NC(=O)Cc2cn(Cc3ccc(F)cc3Cl)c3ccc(Cl)cc23)n1`, the values for the IC50 in assay [1], in assay [4] and in assay [2] were over 25 µM, over 25 µM and 1.15 µM, respectively.

In the case of `CC(C)(C)c1csc(NC(=O)Cc2cn(Cc3ccccc3)c3cc(Cl)ncc23)n1`, the IC50 in assay [1] stood at 23.7 µM; in assay [4], 20.7 µM; in assay [2], 8.34 µM.

With `CC1(C)CCc2sc(NC(=O)c3cc4c(s3)CCCC4)nc21`, the IC50 was over 80 µM in assay [1] and 0.4 µM in assay [5].

For the compound `CC(C)(C)c1csc(NC(=O)c2cc3c(s2)CCCCC3)n1`, the IC50 in assay [1] amounted to 4.3 µM; in assay [5], 0.58 µM.

For the compound `CC(C)(C)c1csc(NC(=O)c2cc(Br)c(Br)s2)n1`, the IC50 in assay [1] was determined as 26 µM; in assay [5], 3.8 µM.

Consider `Cc1c(CC(=O)Nc2nc(C(C)(C)C)cs2)c2ccccc2n1Cc1ccccc1Cl`, for which the results for the IC50 in assay [1], in assay [4] and in assay [2] were over 21.3 µM, over 25 µM and 1.88 µM, respectively.

Consider `CC(C)(C)Cc1csc(NC(=O)Cc2cn(Cc3ccccc3Cl)c3ccc(Cl)cc23)n1`, for which the results for the IC50 in assay [1], in assay [4] and in assay [2] were over 25 µM, over 25 µM and 6.18 µM, respectively.

Take `CC(C)(C)c1csc(NC(=O)Cc2cn(Cc3ccc(C#N)cc3)c3ccc(Cl)cc23)n1`: the values for the 50% inhibitory concentration (IC50) in assay [1], in assay [4] and in assay [2] were 23.8 µM, over 25 µM and 4.14 µM, respectively.

In the case of `CC(C)(C)c1csc(NC(=O)Cc2cn(Cc3nc4ccccc4o3)c3ccc(Cl)cc23)n1`, the values for the IC50 in assay [1], in assay [4] and in assay [2] were over 25 µM, over 25 µM and 9.71 µM, respectively.

Turning to `CC(C)(C)OC(=O)N1CCc2sc(C(=O)Nc3nc(C(C)(C)C)cs3)cc2C1`, the half-maximal inhibitory concentration (IC50) in assay [1] is over 50 µM; in assay [5], 20 µM.

For `Cc1cc(Cn2cc(CC(=O)Nc3nc(C(C)(C)C)cs3)c3cc(Cl)ccc32)ccn1`, the IC50 in assay [1] was over 25 µM; in assay [4], 24 µM; in assay [2], 6.1 µM.

For the compound `CC(c1ccccc1)n1cc(CC(=O)Nc2nc(C(C)(C)C)cs2)c2cc(Cl)ccc21` (stereo unspecified), the IC50 in assay [3] is over 25 µM; in assay [4], over 25 µM; in assay [2], 2.66 µM; in assay [5] it was 0.217 µM.

`CC(C)(C)c1csc(NC(=O)c2ccc(-c3ccc(Cl)cc3Cl)s2)n1`: the IC50 in assay [1] came to 4.31 µM; in assay [5] it was 2.27 µM.

Consider `CC(C)OC(C)(C)c1csc(NC(=O)Cc2cn(Cc3ccccc3Cl)c3ccc(Cl)cc23)n1`, for which the 50% inhibitory concentration (IC50) in assay [1] is 14.8 µM; in assay [4], over 25 µM; in assay [2], 0.715 µM.

`COC(C)(C)c1csc(NC(=O)Cc2cn(Cc3ccccc3Cl)c3ccc(Cl)cc23)n1`: the half-inhibitory concentration (IC50) in assay [1] is 13.6 µM; in assay [4], over 25 µM; in assay [2] it was 1.04 µM.

Turning to `Cc1cc(C(=O)Nc2nc(C(C)(C)C)cs2)sc1-c1ccccc1`, the figures for the IC50 in assay [1] and in assay [5] were 31 µM and 4.5 µM, respectively.

As to `CC(C)(C)c1csc(NC(=O)Cc2cn(Cc3ccccc3)c3ncccc23)n1`, the IC50 is over 25 µM in assay [1], over 25 µM in assay [4] and 12.2 µM in assay [2].

For `CC(C)(C)c1csc(NC(=O)Cc2cn(Cc3c(F)cccc3Cl)c3ccc(Cl)cc23)n1`, the IC50 in assay [1] was over 25 µM; in assay [4], over 25 µM; in assay [2], 6.33 µM.

On to `CC(C)(C)c1csc(NC(=O)c2ccc(-c3ccccc3)s2)n1`, for which the half-maximal inhibitory concentration (IC50) in assay [1] is 4.5 µM; in assay [5], 1.3 µM.

As for `COc1ccc2cc(C(=O)Nc3nc(C(C)(C)C)cs3)sc2c1`, the 50% inhibitory concentration (IC50) in assay [1] was over 80 µM; in assay [5], 1.8 µM.

For `CC(C)(C)c1csc(NC(=O)Cc2cn(Cc3cocn3)c3ccc(Cl)cc23)n1`, the values for the IC50 in assay [1] and in assay [2] were over 25 µM and 22 µM, respectively.

For the compound `CC(C)(C)c1csc(NC(=O)c2cc3ccc(Br)cc3s2)n1`, the half-maximal inhibitory concentration (IC50) in assay [1] is over 80 µM; in assay [5], 3.3 µM.

For the compound `CC(C)(C)c1csc(NC(=O)c2cc3c(s2)CCC3)n1`, the concentration for half-maximal inhibition (IC50) in assay [1] was found to be 18 µM; in assay [5], 1 µM.

`COC(=O)c1sc(NC(=O)c2cc3c(s2)CCCC3)nc1C(C)(C)C`: the IC50 in assay [1] was over 80 µM; in assay [5], 3.9 µM.

For `CC(C)(C)c1csc(NC(=O)c2csc3c2CCCC3)n1`, the IC50 in assay [1] was 73 µM; in assay [5], 14 µM.

Take `CC(C)(C)c1csc(NC(=O)Cc2cn(Cc3ccc(C(N)=O)cc3)c3ccc(Cl)cc23)n1`: the IC50 in assay [1] is over 25 µM; in assay [4], over 25 µM; in assay [2], 8.84 µM.

Take `CC(C(=O)Nc1nc(C(C)(C)C)cs1)c1cn(Cc2ccccc2)c2ccc(Cl)cc12` (stereo unspecified): the values for the IC50 in assay [1], in assay [4] and in assay [2] were over 25 µM, over 25 µM and 6.06 µM, respectively.

For `CC(C)(C)c1nc(NC(=O)c2cc3c(s2)CCCC3)sc1C#N`, the 50% inhibitory concentration (IC50) in assay [1] and in assay [5] was over 80 µM in each case.

`C[C@H](c1ccccc1Cl)n1cc(CC(=O)Nc2nc(C(C)(C)C)cs2)c2cc(Cl)ccc21`: the IC50 in assay [1] is over 25 µM; in assay [4], over 25 µM; in assay [2], 4.16 µM.

Take `CC(C)(C)c1csc(NC(=O)Cc2cn(Cc3ncco3)c3ccc(Cl)cc23)n1`: the IC50 in assay [1] was over 25 µM; in assay [4], over 25 µM; in assay [2] it was 23.5 µM.

As for `CC(C)(C)c1csc(NC(=O)c2cc3c([nH]2)CCCC3)n1`, the concentration for half-maximal inhibition (IC50) in assay [1] was over 80 µM; in assay [5], 2.5 µM.

As for `CC(C)(C)c1csc(NC(=O)c2cc(Br)cs2)n1`, the IC50 in assay [1] turned out to be 72 µM; in assay [5], 14 µM.

Take `CC(C)n1cc(CC(=O)Nc2nc(C(C)(C)C)cs2)c2cc(Cl)ccc21`: the half-maximal inhibitory concentration (IC50) in assay [3] is over 25 µM; in assay [4] it was over 25 µM; in assay [2] it was 4.4 µM; in assay [5], 0.587 µM.

For `CCCc1csc(NC(=O)c2cc3c(s2)CCCC3)n1`, the half-maximal inhibitory concentration (IC50) in assay [1] is over 80 µM; in assay [5], 2.6 µM.

For the compound `CC(C)(C)c1csc(NC(=O)c2ccc(Br)s2)n1`, the IC50 in assay [1] was over 80 µM; in assay [5] it was 23 µM.

In the case of `CC(C)(C)c1csc(NC(=O)c2ccc(Cl)s2)n1`, the IC50 is 8 µM in assay [1] and 2 µM in assay [5].

`CC(=O)N1CCc2sc(C(=O)Nc3nc(C(C)(C)C)cs3)cc2C1`: the half-maximal inhibitory concentration (IC50) in assay [1] and in assay [5] was over 50 µM in each case.

As to `CC(C)(C)c1csc(NC(=O)Cc2cn(CC(=O)Nc3ccccc3O)c3ccc(Cl)cc23)n1`, the IC50 was 17.7 µM in assay [1], 19.1 µM in assay [4] and 10.4 µM in assay [2].

As for `CC(C)(C)c1csc(NC(=O)Cc2cn(Cc3ncccn3)c3ccc(Cl)cc23)n1`, the half-maximal inhibitory concentration (IC50) is over 25 µM in assay [1], over 25 µM in assay [4] and 23.3 µM in assay [2].

Consider `CC(C)(C)c1csc(NC(=O)Cc2cn(Cc3ccccc3)c3nc(Cl)ccc23)n1`, for which the concentration for half-maximal inhibition (IC50) in assay [1] is over 25 µM; in assay [4], over 25 µM; in assay [2], 10 µM.

Consider `CC(C)(C)Cc1csc(NC(=O)Cc2csc3ccc(Cl)cc23)n1`, for which the half-inhibitory concentration (IC50) in assay [3] was over 25 µM; in assay [4] it was over 25 µM; in assay [2] it was 6.99 µM; in assay [5], 2480 µM.

Take `CC(C)c1csc(NC(=O)c2cc3c(s2)CCCC3)n1`: the IC50 was over 80 µM in assay [1] and 1.2 µM in assay [5].

With `Cc1cc(C(=O)Nc2nc(C(C)(C)C)cs2)cn1Cc1ccccc1`, the IC50 in assay [1] was over 25 µM; in assay [4], over 25 µM; in assay [2], 4.74 µM.

On to `Cc1cnccc1Cn1cc(CC(=O)Nc2nc(C(C)(C)C)cs2)c2cc(Cl)ccc21`, for which the values for the IC50 in assay [1], in assay [4] and in assay [2] were 19.1 µM, over 25 µM and 2.68 µM, respectively.

Turning to `CC(C)(C)c1nsc(NC(=O)c2cc3c(s2)CCCC3)n1`, the concentration for half-maximal inhibition (IC50) was found to be 4.7 µM in assay [1] and 0.43 µM in assay [5].

On to `CCC(C)(C)c1csc(NC(=O)Cc2cn(Cc3ccccc3Cl)c3ccc(Cl)cc23)n1`, for which the 50% inhibitory concentration (IC50) was over 24.2 µM in assay [1], over 25 µM in assay [4] and 0.727 µM in assay [2].

On to `CC(C)(C)c1csc(NC(=O)Cc2cn(-c3cccc(Cl)c3)c3ccc(Cl)cc23)n1`, for which the IC50 was over 25 µM in assay [4] and 4.14 µM in assay [2].

Turning to `C[C@@H](c1ccccc1Cl)n1cc(CC(=O)Nc2nc(C(C)(C)C)cs2)c2cc(Cl)ccc21`, the IC50 is over 25 µM in assay [1], over 25 µM in assay [4] and 0.875 µM in assay [2].

Take `O=C(Nc1nc(C2CC2)cs1)c1cc2c(s1)CCCC2`: the figures for the half-inhibitory concentration (IC50) in assay [1] and in assay [5] were over 80 µM and 11 µM, respectively.

Regarding `CCC1CCc2sc(C(=O)Nc3nc(C(C)(C)C)cs3)cc2C1` (stereo unspecified), the IC50 in assay [1] was over 80 µM; in assay [5], 7.9 µM.

Take `CC(C)(C)c1csc(NC(=O)Cc2cn(C3CCCCC3)c3ccc(Cl)cc23)n1`: the 50% inhibitory concentration (IC50) in assay [1] is over 25 µM; in assay [4], over 25 µM; in assay [2] it was 3.36 µM.

On to `CC(C)Cn1cc(CC(=O)Nc2nc(C(C)(C)C)cs2)c2cc(Cl)ccc21`, for which the results for the IC50 in assay [4] and in assay [2] were over 25 µM and 5.38 µM, respectively.

In the case of `CC(C)(C)c1csc(NC(=O)Cc2cn(Cc3ccccc3)c3ccncc23)n1`, the results for the IC50 in assay [1], in assay [4] and in assay [2] were over 25 µM, over 25 µM and 8.6 µM, respectively.

With `CNC(=O)c1ccc2sc(C(=O)Nc3nc(C(C)(C)C)cs3)cc2c1`, the IC50 came out at 7.44 µM in assay [4] and 8.8 µM in assay [2].

With `CC(C)(C)c1csc(NC(=O)Cc2cn(C3CCc4ccccc43)c3ccc(Cl)cc23)n1` (stereo unspecified), the IC50 in assay [1] was over 25 µM; in assay [4] it was over 25 µM; in assay [2], 6.62 µM.
